# In the oligonucleotide strings, read from the 5' end, every base follows the letter of its sugar. An asterisk marks phosphorothioate; unmarked linkages are phosphodiester. Other units and linkages are bracketed, terminal groups are in braces. A string of capitals states the bases alone. d = 2'-deoxy (DNA); m = 2'-O-methyl; r = 2'-OH (RNA)
# Tested on: PCSK9 mRNA
# Assay: PCSK9 siRNA screening in HepG2 cells (lipofectamine 2000 transfection, PCSK9 mRNA by Quantigene, normalized to GAP-DH)
# Type: cell-based, human
# Details: not given
# Summary of the method: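 PCSK9 silencing was assessed in HepG2 cells by lipofectamine 2000 siRNA transfection in 96-well plates. Twenty-four hours later, lysates were analyzed with the Quantigene Explore Kit, with PCSK9 signal normalized to GAP-DH. Eight datapoints were collected per siRNA, and remaining transcript was expressed as a percentage of cells treated with an unrelated control siRNA duplex.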
row,Substance,IC50
1,AD-9688: PCSK9 siRNA (sense mUmCmUmCmCmUrArGrAmCrAmCmCrArGmCrAmUrAdT*dT; antisense mUrArUrGrCrUrGrGrUrGrUrCmUrArGrGrArGrAdT*dT),4.2 nM
2,AD-9699: PCSK9 siRNA (sense rAmUrGrGmUmCrAmCmCrGrAmCmUmUmCrGrArGrAdT*dT; antisense rUrCrUrCrGrArArGrUrCrGrGrUrGrArCmCrArUdT*dT),2.5 nM

# Same assay, conditions: 3 nM siRNA
row,Substance,Mean percent remaining mRNA transcript at siRNA concentration/in cell type 3 nM/HepG2
1,AD-9688: PCSK9 siRNA (sense mUmCmUmCmCmUrArGrAmCrAmCmCrArGmCrAmUrAdT*dT; antisense mUrArUrGrCrUrGrGrUrGrUrCmUrArGrGrArGrAdT*dT),34%
2,AD-9697: PCSK9 siRNA (sense rGmCmCrArGrGmUrGmCmUrGmCmCmUrGmCmUrAmCdT*dT; antisense rGmUrArGmCrArGrGmCrArGmCrArCrCrUrGrGrCdT*dT),89%
3,AD-9699: PCSK9 siRNA (sense rAmUrGrGmUmCrAmCmCrGrAmCmUmUmCrGrArGrAdT*dT; antisense rUrCrUrCrGrArArGrUrCrGrGrUrGrArCmCrArUdT*dT),36%
4,AD-9721: PCSK9 siRNA (sense mCmUrGrArGrGrAmCmCrArGmCrGrGrGmUrAmCmUdT*dT; antisense rArGmUrArCrCrCrGrCrUrGrGrUrCrCrUmCrArGdT*dT),70%

# Same assay, conditions: 30 nM siRNA
row,Substance,Mean percent remaining mRNA transcript at siRNA concentration/in cell type 30 nM/HepG2
1,AD-9688: PCSK9 siRNA (sense mUmCmUmCmCmUrArGrAmCrAmCmCrArGmCrAmUrAdT*dT; antisense mUrArUrGrCrUrGrGrUrGrUrCmUrArGrGrArGrAdT*dT),26%
2,AD-9689: PCSK9 siRNA (sense mCrGmCmUrGmCmCrGrGmCrArAmCmUmUmCmCrGrGdT*dT; antisense rCrCrGrGrArArGrUrUrGrCrCrGrGmCrArGrCrGdT*dT),81%
3,AD-9690: PCSK9 siRNA (sense mUmCrAmUmUrGrGmUrGmCmCmUmCmCrArGmCrGrAdT*dT; antisense rUrCrGrCrUrGrGrArGrGmCrArCmCrArArUrGrAdT*dT),92%
4,AD-9691: PCSK9 siRNA (sense mUrAmCmUmCmUrGmCmUmCmUrAmUrGmCmCrArGrGdT*dT; antisense rCrCrUrGrGmCrAmUrArGrArGmCrArGrArGmUrAdT*dT),49%
5,AD-9692: PCSK9 siRNA (sense mUrGmCmCrGrGrGmCmCmCrAmCrArAmCrGmCmUmUdT*dT; antisense rArArGrCrGrUrUrGrUrGrGrGrCrCrCrGrGmCrAdT*dT),78%
6,AD-9693: PCSK9 siRNA (sense mCrGmCmUrGmUrGmUrGrGrAmCmCmUmCmUmUmUrGdT*dT; antisense mCrArArArGrArGrGrUrCmCrAmCrAmCrArGrCrGdT*dT),50%
7,AD-9694: PCSK9 siRNA (sense rGmUmUrGrArGrGmCrArGrArGrAmCmUrGrAmUmCdT*dT; antisense rGrArUmCrArGrUrCrUrCrUrGrCrCrUmCrArArCdT*dT),52%
8,AD-9695: PCSK9 siRNA (sense rArGmCmUmCmCmUrGmCrAmCrArGmUmCmCmUmCmCdT*dT; antisense rGrGrArGrGrArCrUrGrUrGmCrArGrGrArGrCrUdT*dT),102%
9,AD-9696: PCSK9 siRNA (sense mCmUrGmCmCrGrGrGmCmCmCrAmCrArAmCrGmCmUdT*dT; antisense rArGrCrGrUrUrGrUrGrGrGrCrCrCrGrGmCrArGdT*dT),77%
10,AD-9697: PCSK9 siRNA (sense rGmCmCrArGrGmUrGmCmUrGmCmCmUrGmCmUrAmCdT*dT; antisense rGmUrArGmCrArGrGmCrArGmCrArCrCrUrGrGrCdT*dT),74%
11,AD-9698: PCSK9 siRNA (sense mCmCrArGrGmUrGmCmUrGmCmCmUrGmCmUrAmCmCdT*dT; antisense rGrGmUrArGmCrArGrGmCrArGmCrArCrCrUrGrGdT*dT),73%
12,AD-9699: PCSK9 siRNA (sense rAmUrGrGmUmCrAmCmCrGrAmCmUmUmCrGrArGrAdT*dT; antisense rUrCrUrCrGrArArGrUrCrGrGrUrGrArCmCrArUdT*dT),32%
13,AD-9701: PCSK9 siRNA (sense mCmCrGmCmUrGmCmCrGrGmCrArAmCmUmUmCmCrGdT*dT; antisense rCrGrGrArArGrUrUrGrCrCrGrGmCrArGrCrGrGdT*dT),100%
14,AD-9702: PCSK9 siRNA (sense rGmCrArGrArGrAmCmUrGrAmUmCmCrAmCmUmUmCdT*dT; antisense rGrArArGrUrGrGrArUmCrArGrUrCrUrCrUrGrCdT*dT),79%
15,AD-9704: PCSK9 siRNA (sense mCrAmUmUmUrAmUmCmUmUmUmUrGrGrGmUmCmUrGdT*dT; antisense mCrArGrArCrCmCrArArArArGrAmUrArArArUrGdT*dT),111%
16,AD-9705: PCSK9 siRNA (sense rAmUmCrGrArGrGrArGrGrAmCmUmCmCmUmCmUrGdT*dT; antisense mCrArGrArGrGrArGrUrCrCrUrCrCrUrCrGrArUdT*dT),81%
17,AD-9706: PCSK9 siRNA (sense mCmCmUrGmCrGmCrGmUrGmCmUmCrArAmCmUrGmCdT*dT; antisense rGmCrArGrUrUrGrArGmCrArCrGrCrGmCrArGrGdT*dT),86%
18,AD-9707: PCSK9 siRNA (sense mUrGmCrGmCrGmUrGmCmUmCrArAmCmUrGmCmCrAdT*dT; antisense rUrGrGmCrArGrUrUrGrArGmCrArCrGrCrGmCrAdT*dT),81%
19,AD-9708: PCSK9 siRNA (sense mCmCrArGmCrAmUmCmCrAmCrGmCmUmUmCmCmUrGdT*dT; antisense mCrArGrGrArArGrCrGrUrGrGrArUrGrCrUrGrGdT*dT),81%

row,Substance,Mean percent remaining mRNA transcript at siRNA concentration/in cell type 30 nM/HepG2
1,AD-9709: PCSK9 siRNA (sense mCmCmCrAmUrGmUmCrGrAmCmUrAmCrAmUmCrGrAdT*dT; antisense rUrCrGrArUrGmUrArGrUrCrGrAmCrArUrGrGrGdT*dT),104%
2,AD-9710: PCSK9 siRNA (sense mCmCmCmUrGrGmCrGrGrGmUrGrGrGmUrAmCrArGdT*dT; antisense rCrUrGmUrArCrCmCrArCrCrCrGrCmCrArGrGrGdT*dT),111%
3,AD-9711: PCSK9 siRNA (sense mCrGrGmCrArAmCmUmUmCmCrGrGrGrAmCrGrAmUdT*dT; antisense rArUrCrGrUrCrCrCrGrGrArArGrUrUrGrCrCrGdT*dT),122%
4,AD-9712: PCSK9 siRNA (sense rGrAmCrAmUmCrAmUmUrGrGmUrGmCmCmUmCmCrAdT*dT; antisense rUrGrGrArGrGmCrArCmCrArArUrGrArUrGrUrCdT*dT),107%
5,AD-9714: PCSK9 siRNA (sense rGrGmUmCrAmCmCrGmCmUrGmCmCrGrGmCrArAmCdT*dT; antisense rGrUrUrGrCrCrGrGmCrArGrCrGrGrUrGrArCrCdT*dT),106%
6,AD-9715: PCSK9 siRNA (sense mCrAmCmCrGmCmUrGmCmCrGrGmCrArAmCmUmUmCdT*dT; antisense rGrArArGrUrUrGrCrCrGrGmCrArGrCrGrGrUrGdT*dT),113%
7,AD-9716: PCSK9 siRNA (sense rAmCmCrArAmCmUmUmUrGrGmCmCrGmCmUrGmUrGdT*dT; antisense mCrAmCrArGrCrGrGrCmCrArArArGrUrUrGrGrUdT*dT),114%
8,AD-9717: PCSK9 siRNA (sense rAmCmUrGmUmCmCmCmUmCmCmUmUrGrArGmCrAmCdT*dT; antisense rGrUrGrCrUmCrArArGrGrArGrGrGrAmCrArGrUdT*dT),105%
9,AD-9718: PCSK9 siRNA (sense mCmCmUrArGrAmCrAmCmCrArGmCrAmUrAmCrArGdT*dT; antisense rCrUrGmUrArUrGrCrUrGrGrUrGrUrCmUrArGrGdT*dT),78%
10,AD-9719: PCSK9 siRNA (sense mCrArGrGrGmUmCrAmUrGrGmUmCrAmCmCrGrAmCdT*dT; antisense rGrUrCrGrGrUrGrArCmCrArUrGrArCrCrCrUrGdT*dT),115%
11,AD-9720: PCSK9 siRNA (sense rGmCmUrGmCmCrGrGmCrArAmCmUmUmCmCrGrGrGdT*dT; antisense rCrCrCrGrGrArArGrUrUrGrCrCrGrGmCrArGrCdT*dT),92%
12,AD-9721: PCSK9 siRNA (sense mCmUrGrArGrGrAmCmCrArGmCrGrGrGmUrAmCmUdT*dT; antisense rArGmUrArCrCrCrGrCrUrGrGrUrCrCrUmCrArGdT*dT),87%
13,AD-9722: PCSK9 siRNA (sense rGrArArGrAmUrGrArGmUrGrGmCrGrAmCmCmUrGdT*dT; antisense mCrArGrGrUrCrGrCmCrArCrUmCrArUrCrUrUrCdT*dT),76%
14,AD-9724: PCSK9 siRNA (sense mCmCmUrGrGmUrGrGrArGrGmUrGmUrAmUmCmUmCdT*dT; antisense rGrArGrAmUrAmCrArCrCrUrCmCrArCmCrArGrGdT*dT),127%
15,AD-9725: PCSK9 siRNA (sense mUmUmCmUrGrGrAmUrGrGmCrAmUmCmUrArGmCmCdT*dT; antisense rGrGrCmUrArGrArUrGrCmCrArUrCmCrArGrArAdT*dT),38%
16,AD-9726: PCSK9 siRNA (sense rGmUmCrGmUrGmCmUrGrGmUmCrAmCmCrGmCmUrGdT*dT; antisense mCrArGrCrGrGrUrGrArCmCrArGmCrArCrGrArCdT*dT),95%
17,AD-9727: PCSK9 siRNA (sense rArGrGrGmUmCrAmUrGrGmUmCrAmCmCrGrAmCmUdT*dT; antisense rArGrUrCrGrGrUrGrArCmCrArUrGrArCrCrCrUdT*dT),118%
18,AD-9728: PCSK9 siRNA (sense mCrArGmCrGrGmCmCrGrGrGrAmUrGmCmCrGrGmCdT*dT; antisense rGrCrCrGrGmCrArUrCrCrCrGrGrCrCrGrCrUrGdT*dT),94%
19,AD-9729: PCSK9 siRNA (sense mUmUmUmCmUrGrGrAmUrGrGmCrAmUmCmUrArGmCdT*dT; antisense rGrCmUrArGrArUrGrCmCrArUrCmCrArGrArArAdT*dT),56%

# Source: US20120016009A1, “Optimized Methods For Delivery Of DSRNA Targeting The PCSK9 Gene” (priority 2008, published 2012)
